# Legend:
# OATP1B3 = molecular target: T1, OATP1B3 (Homo sapiens, UniProt Q9NPD5); assay: Uptake of CLF into CHO cells expressing OATP1B3; type: cell-based; parameters: Vmax of OATP1B3 mediated CLF transport: unit not given here
# T1 construct: expressed in transfected cells; host or cells: CHO cells (stably transfected; Treiber et al. 2007)
# T1 sequence (Q9NPD5 1-702): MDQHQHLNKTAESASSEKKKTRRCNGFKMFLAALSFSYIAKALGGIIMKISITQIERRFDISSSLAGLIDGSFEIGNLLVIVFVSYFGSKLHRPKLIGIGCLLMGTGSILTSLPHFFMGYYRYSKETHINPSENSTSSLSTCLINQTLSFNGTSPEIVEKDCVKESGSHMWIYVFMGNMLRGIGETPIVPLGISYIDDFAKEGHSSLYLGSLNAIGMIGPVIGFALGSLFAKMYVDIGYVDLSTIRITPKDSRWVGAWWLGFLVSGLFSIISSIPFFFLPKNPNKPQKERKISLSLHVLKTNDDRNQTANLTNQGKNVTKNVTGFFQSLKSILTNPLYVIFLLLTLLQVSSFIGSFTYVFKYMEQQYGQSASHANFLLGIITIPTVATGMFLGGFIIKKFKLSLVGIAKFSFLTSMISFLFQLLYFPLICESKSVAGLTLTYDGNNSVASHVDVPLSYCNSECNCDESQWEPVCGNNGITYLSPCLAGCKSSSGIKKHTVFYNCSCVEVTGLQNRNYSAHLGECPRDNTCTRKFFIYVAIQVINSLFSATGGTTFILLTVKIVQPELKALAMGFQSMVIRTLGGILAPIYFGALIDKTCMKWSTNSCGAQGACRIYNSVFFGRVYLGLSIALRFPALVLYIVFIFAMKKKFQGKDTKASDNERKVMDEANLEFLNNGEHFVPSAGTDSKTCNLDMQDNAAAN
# Method: cDNA for human NTCP [Hagenbuch et al., J Clin Invest 1994 March; 93(3): 1326-1331] was cut with EcoRV and HindI and the coding region ligated into pcDNA5/FRT (Invitrogen, Life-Technologies, Carlsbad, Calif.). CHO FlpIn cells (Invitrogen, Life-Technologies) were transfected with the resulting construct using Lipofectamine® 2000 (Invitrogen, Life-Technologies). Stably transfected cells were selected with 550 μg Hygromycin-B in HAM-F12 medium (Gibco, Invitrogen, Life-Technologies). Transfected cells were cloned with the limiting dilution method. […] To further characterize the cloned cells, immunofluorescence localization of NTCP using a polyclonal antibody against NTCP [Kullak-Ublick G et al., Gastroenterology 1997 October; 113(4):1295-1305] was performed as described by Huber R D et al. [Am J Physiol Cell Physiol 2007 February; 292(2):[…]-[…]]. CHO cells expressing OATP1B1, OATP1B3 and OATP2B1 were described previously [Treiber et al., DMD 35:1400-1407, 2007]. For all transport experiments, cells grown on 3 cm culture dishes were cultured for 24 hours in media supplemented with 5 mmol/L sodium-butyrate to increase expression levels of transfected transporters [Palermo D P et al., J Biotechnol 1991 June; 19(1):35-47]. • Transport experiments with uptake of radioactively labeled substrates: These experiments were performed as described by Huber R D et al. […] Uptake was performed in the same buffers as for the radioactive substrates above. For visualization of CLF uptake, cells were immediately inspected with a Leica-DM-IRBE-inverted-microcope (Leica-Microsystems, Wetzlar, Germany) equipped with a Hamamatsu-ORKA-ER-camera (Hamamatsu-Photonoics, Japan). To determine uptake of CLF, cells were solubilized by the addition of 2 ml 1% (w/v) Triton-X-100. After complete solubilization, 1.5 ml was used to measure fluorescence in a Perkin-Elmer LS-5 luminescence-spectrometer set at λexe 486 nm (slit 10 nm) and λem 520 nm (slit 5 nm). Protein was determined with the bicinchoninic acid method using a kit from Interchim (Montfuçon, France). […]
# Abcc2 and Abcc3 = assay: Plasma clearance of CLF in wild type, Abcc2-/- and Abcc3-/- mice; type: in vivo; details: single injection of 100 μL 2 mmol/L CLF in the tail vein
# Method: Wild type, Abcc3^−/− and Abcc2^−/− mice received 100 μL of 2 mmol/L CLF by injection in the tail vein. After the indicated time points blood was drawn. Data are expressed as the mean percentage of the initial CLF level at 2 minutes. Significance was tested using two-sided Student's t-test: *P<0.05 for Abcc2−/− vs wild type mice.
# Abcc2^−/− mice (against a Friend virus B-type (FVB) background) were bred at the National Cancer Institute (Amsterdam, The Netherlands). Production and characterization of the Abcc2^−/− mice was as described by Vlaming et al. [J Pharmacol Exp Ther 2006 July; 318(1):319-327]. Wild type and Abcc3^−/− mice (against an FVB background) were bred at the animal institute of the Academic Medical Center. Production and characterization of the Abcc3^−/− mice was as described by Zelcer et al. [J Hepatol 2006 April; 44(4):768-775].
# Male mice were housed in a pathogen-free animal facility on a 12 hours light-dark cycle. Mice were anesthetized with a combination of Hypnorm (VetaPharma, UK; 11.8 mg/kg fluanisone and 0.37 mg/kg fentanyl-citrate) and diazepam (Centrafarm, Etten-Leur, The Netherlands; 5.9 mg/kg valium). Body temperature was maintained at 36±1° C. on thermostatted heating pads. […] Blood samples were deproteinised by addition of two volumes methanol and the amount CLF in the supernatant was quantitated by measurement of fluorescence as described above.
structure (smiles),measurement,setting,value
"CC(CCC(=O)NC(CCCCNC(=S)Nc1ccc(-c2c3ccc(=O)cc-3oc3cc(O)ccc23)c(C(=O)O)c1)C(=O)O)C1CCC2C3C(O)CC4CC(O)CCC4(C)C3CC(O)C12C (centres unmarked) [CLF, cholyl lysyl fluorescein]",uptake of CLF into OATP1B3 expressing cells,"OATP1B3; 1 μmol/L CLF, 1 or 5 minutes",clear uptake
same,Vmax of OATP1B3 mediated CLF transport,"OATP1B3; 45 seconds, mean of three independent determinations",213±42
same,Km at 45 seconds,"OATP1B3; human, CHO cells expressing OATP1B3, 45 seconds, mean of three independent determinations, read-out: Km of OATP1B3 mediated CLF transport",4.6 ± 2.7 µM
same,Plasma clearance of CLF in Abcc2-/- mice in comparison with wild type mice,Abcc2 and Abcc3,strongly impaired
same,Plasma clearance of CLF in Abcc3-/- mice in comparison with wild type mice,Abcc2 and Abcc3,not affected

# Source: patent US8318504B2, “MRP2 efflux pathway prognostic method” (priority 2009, dated 2012)
